Data from patent US20130123481A1, “MODIFIED NUCLEOSIDES, NUCLEOTIDES, AND NUCLEIC ACIDS, AND USES THEREOF” (MODERNA THERAPEUTICS, priority 2011, published 2013).

What was measured:
HeLa cells = assay: G-CSF expression in HeLa cells (ELISA); format: cell-based, human; design: key to Protein (G-CSF; HeLa): the protein production of HeLa is judged by “+,” “+/−” and “−”; the protein production of HeLa is judged by “+,” “+/−” and “−”; the protein production of HeLa is judged by “+,” “+/−” and “−”; conditions: for G-CSF protein (pg/ml) HeLa cells: fully modified G-CSF mRNA transfected in HeLa cells, ELISA
Protocol: (§1) To assess the activity of all our different chemical modifications in the context of a second open reading frame, we replicated experiments previously conducted using luciferase mRNA, with human G-CSF mRNA. […] The mutant T7 polymerase was obtained commercially (Durascribe® T7 Transcription kit (Cat. No. DS010925) (Epicentre®, Madison, Wis.).
(§2) The modified RNA in Tables 45 and 46 were transfected in vitro in HeLa cells or added to rabbit reticulysates (250 ng of modified mRNA) as indicated. […] In Table 45, “NT” means not tested.

rabbit reticulysates = assay: G-CSF expression in rabbit reticulysates (ELISA); format: biochemical; conditions: 250 ng modified G-CSF mRNA in rabbit reticulysates
Protocol: as §1, §2

[1] = system: peripheral blood mononuclear cells (PBMC); assay: In Vitro Screening in PBMC - G-CSF protein expression; format: cell-based, human; conditions: for G-CSF Protein Expression: 500 ng mRNA
Source text: (§3) The supernatant was harvested and stored frozen until analyzed by ELISA to determine the G-CSF protein expression, and the induction of the cytokines interferon-alpha (IFN-α) and tumor necrosis factor alpha (TNF-α).

wild-type T7 polymerase = wild-type T7 polymerase (Escherichia phage T7, UniProt P00573); assay: In Vitro Transcription with Wild-Type T7 Polymerase (transcription and capping yield); conditions: for In vitro transcription Yield: wild-type T7 polymerase; for In vitro transcription Yield / Capping reaction Yield: OD260; for Capping reaction Yield: enzymatic capping
Protocol: The luciferase and G-CSF modified mRNA were also subjected to an enzymatic capping reaction and each modified mRNA capping reaction was evaluated for yield by spectrophometic measurement (OD260) and correct size assessed using bioanalyzer.

[2] = system: peripheral blood mononuclear cells (PBMC), interferon-alpha (IFN-α); format: cell-based, human; conditions: Table 47 naturally occurring; IFN-alpha, background about 70 pg/ml
Source text: as §3

[3] = system: human embryonic kidney 293 (HEK293) cells; assay: Toxicity of Nucleoside Triphosphates (NTPs), CYTO TOX-GLO assay; format: cell-based; conditions: human
Protocol: The cytotoxicity of natural and modified nucleoside triphosphates (NTPs) alone or in combination with other bases, was analyzed in human embryonic kidney 293 (HEK293) cells in the absence of transfection reagent. […] 10 ul of the NTPs outlined in Table 12 were combined with 10 ul of lipid dilution and incubated for 30 minutes to form a complex before 80 ul of the HEK293 cell suspension was added to the NTP complex. Natural and modified NTPs were transfected at a concentration of 2.1 nM, 21 nM, 210 nM, 2.1 um, 21 uM, 210 um or 2.1 mM. NTPs in combination were transfected at a total concentration of NTPs of 8.4 nM, 84 nM, 840 nM, 8.4 uM, 84 uM, 840 uM and 8.4 mM.

[4] = PBMC Donor 1, 0.4 uL Lipofectamine 2000

Sequence of wild-type T7 polymerase (P00573 whole entry): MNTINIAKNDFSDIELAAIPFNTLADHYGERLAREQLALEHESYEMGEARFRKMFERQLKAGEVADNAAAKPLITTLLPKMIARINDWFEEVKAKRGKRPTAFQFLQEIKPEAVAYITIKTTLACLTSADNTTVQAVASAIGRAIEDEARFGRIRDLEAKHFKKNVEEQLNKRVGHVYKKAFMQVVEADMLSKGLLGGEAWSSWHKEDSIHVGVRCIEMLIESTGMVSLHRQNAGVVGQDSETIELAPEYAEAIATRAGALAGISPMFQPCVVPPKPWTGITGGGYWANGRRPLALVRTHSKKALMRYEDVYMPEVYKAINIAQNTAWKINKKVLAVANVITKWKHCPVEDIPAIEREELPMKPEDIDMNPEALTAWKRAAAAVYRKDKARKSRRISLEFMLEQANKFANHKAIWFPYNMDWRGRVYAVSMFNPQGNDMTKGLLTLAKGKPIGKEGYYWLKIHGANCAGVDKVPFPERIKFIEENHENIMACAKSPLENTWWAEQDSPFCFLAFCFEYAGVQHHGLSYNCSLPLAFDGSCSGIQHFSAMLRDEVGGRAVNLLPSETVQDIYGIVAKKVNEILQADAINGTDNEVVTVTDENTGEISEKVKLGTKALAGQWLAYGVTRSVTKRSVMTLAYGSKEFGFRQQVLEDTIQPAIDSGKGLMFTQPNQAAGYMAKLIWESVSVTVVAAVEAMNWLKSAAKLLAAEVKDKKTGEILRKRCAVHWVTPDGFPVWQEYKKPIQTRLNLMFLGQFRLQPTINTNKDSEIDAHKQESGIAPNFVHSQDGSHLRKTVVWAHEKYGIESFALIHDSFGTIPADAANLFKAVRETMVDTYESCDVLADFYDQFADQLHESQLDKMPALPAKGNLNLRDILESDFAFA

## O=c1ccn([C@@H]2O[C@H](CO)[C@@H](O)[C@H]2O)c(=S)[nH]1 [2-thiouridine]
HeLa cells
  G-CSF protein (pg/ml) HeLa cells: 417,273 pg/ml
Rabbit reticulysates
  G-CSF protein (pg/ml) Rabbit reticulysates cells: 18,375 pg/ml
[1]; [4]
  G-CSF Protein Expression: 932 pg/mL
[1]; PBMC Donor 2
  G-CSF Protein Expression: 1,000 pg/ml
[1]; PBMC Donor 3
  G-CSF Protein Expression: 600 pg/mL

## O=c1[nH]c(=S)ccn1[C@@H]1O[C@H](CO)[C@@H](O)[C@H]1O [4-thiouridine (s^4U)]
HeLa cells; Table 47 naturally occurring, *** = production seen in cell free translations
  Protein (G-CSF; HeLa): +
[1]; Table 47 naturally occurring, background about 110 pg/ml
  Protein (G-CSF; PBMC): +/− (“+/−” means 150-300 pg/ml G-CSF)
wild-type T7 polymerase; Table 47 naturally occurring, G-CSF mRNA in vitro transcription, Pass/Fail
  IVT (G-CSF): Pass
wild-type T7 polymerase; Table 47 naturally occurring, luciferase mRNA in vitro transcription, Pass/Fail
  IVT (Luc): Fail
[2]
  Cytokines (G-CSF; PBMC): ++ (“++” means greater than 300 pg/ml IFN-alpha)

## O=c1[nH]c(=S)ccn1[C@@H]1O[C@H](CO)[C@@H](O)[C@H]1O [4-thiouridine]
HeLa cells
  G-CSF protein (pg/ml) HeLa cells: 107,273 pg/ml
Rabbit reticulysates
  G-CSF protein (pg/ml) Rabbit reticulysates cells: 52,375 pg/ml
[1]; [4]
  G-CSF Protein Expression: 5 pg/mL
[1]; PBMC Donor 2
  G-CSF Protein Expression: 391 pg/mL
[1]; PBMC Donor 3
  G-CSF Protein Expression: 218 pg/mL

## COC(=O)C=Cc1cn([C@@H]2O[C@H](CO)[C@@H](O)[C@H]2O)c(=O)[nH]c1=O [5 (2 carbomethoxyvinyl) uridine]
wild-type T7 polymerase; G-CSF mRNA
  In vitro transcription Yield: 1.8 mg
wild-type T7 polymerase; G-CSF modified mRNA (wild-type T7)
  Capping reaction Yield: 1.28 mg
wild-type T7 polymerase; Luciferase mRNA
  In vitro transcription Yield: 0.89 mg
wild-type T7 polymerase; Luciferase modified mRNA (wild-type T7)
  Capping reaction Yield: 0.54 mg

## COC(=O)C=Cc1cn([C@@H]2O[C@H](CO)[C@@H](O)[C@H]2O)c(=O)[nH]c1=O [5-(2-carbomethoxyvinyl)uridine]
[1]; [4]
  G-CSF Protein Expression: 77 pg/mL
[1]; PBMC Donor 2
  G-CSF Protein Expression: 286 pg/mL
[1]; PBMC Donor 3
  G-CSF Protein Expression: 177 pg/mL

## COC(=O)C=Cc1cn([C@@H]2O[C@H](CO)[C@@H](O)[C@H]2O)c(=O)[nH]c1=O [5-(2carbomethoxyvinyl) uridine]
HeLa cells
  G-CSF protein (pg/ml) HeLa cells: 1,364 pg/ml
Rabbit reticulysates
  G-CSF protein (pg/ml) Rabbit reticulysates cells: 0 pg/mL

## O=c1[nH]c(=O)n([C@@H]2O[C@H](CO)[C@@H](O)[C@H]2O)cc1Br [5-Bromo-uridine]
HeLa cells
  G-CSF protein (pg/ml) HeLa cells: 186,591 pg/ml
Rabbit reticulysates
  G-CSF protein (pg/ml) Rabbit reticulysates cells: 72,000 pg/ml

## Nc1nc(=O)n([C@@H]2O[C@H](CO)[C@@H](O)[C@H]2O)cc1C=O [5-formylcytidine]
[1]; [4]
  G-CSF Protein Expression: 18 pg/mL
[1]; PBMC Donor 2
  G-CSF Protein Expression: 205 pg/mL
[1]; PBMC Donor 3
  G-CSF Protein Expression: 23 pg/mL

## COc1cn([C@@H]2O[C@H](CO)[C@@H](O)[C@H]2O)c(=O)[nH]c1=O [5-methoxyuridine]
HeLa cells
  G-CSF protein (pg/ml) HeLa cells: 1,715,909 pg/ml
Rabbit reticulysates
  G-CSF protein (pg/ml) Rabbit reticulysates cells: 201,750 pg/ml
[1]; [4]
  G-CSF Protein Expression: 2,964 pg/ml
[1]; PBMC Donor 2
  G-CSF Protein Expression: 1,832 pg/ml
[1]; PBMC Donor 3
  G-CSF Protein Expression: 1,800 pg/ml

## Nc1nc(=O)n([C@@H]2O[C@H](CO)[C@@H](O)[C@H]2O)cc1C=O [Compound 5-formyl-cytidine, 5-formyl-cytidine]
HeLa cells
  G-CSF protein (pg/ml) HeLa cells: 0 pg/mL
Rabbit reticulysates
  G-CSF protein (pg/ml) Rabbit reticulysates cells: 24,000 pg/ml

## Cc1cn([C@@H]2O[C@H](CO)[C@@H](O)[C@H]2O)c(=O)nc1N [Compound 5-methyl-cytidine, 5-methyl-cytidine]
HeLa cells
  G-CSF protein (pg/ml) HeLa cells: 646,591 pg/ml
Rabbit reticulysates
  G-CSF protein (pg/ml) Rabbit reticulysates cells: 79,375 pg/ml

## Nc1cnn([C@@H]2O[C@H](CO)[C@@H](O)[C@H]2O)c(=O)n1 [Compound 6-Aza-cytidine, 6-Aza-cytidine]
wild-type T7 polymerase; Table 48 non-naturally occurring, G-CSF mRNA in vitro transcription, Pass/Fail
  IVT (G-CSF), first result: Fail
wild-type T7 polymerase; Table 48 non-naturally occurring, luciferase mRNA in vitro transcription, Pass/Fail
  IVT (Luc), first result: Fail

## Cn1cnc2c(ncn2[C@@H]2O[C@H](CO)[C@@H](O)[C@H]2O)c1=N [Compound N1-methyl-adenosine, N1-methyl-adenosine]
HeLa cells
  G-CSF protein (pg/ml) HeLa cells: 4,773 pg/ml
Rabbit reticulysates
  G-CSF protein (pg/ml) Rabbit reticulysates cells: 0 pg/mL

## CNc1ncnc2c1ncn2[C@@H]1O[C@H](CO)[C@@H](O)[C@H]1O [Compound N6-methyl-adenosine, N6-methyl-adenosine]
HeLa cells
  G-CSF protein (pg/ml) HeLa cells: 1,591 pg/ml
Rabbit reticulysates
  G-CSF protein (pg/ml) Rabbit reticulysates cells: 0 pg/mL

## Cn1cnc2c(ncn2[C@@H]2O[C@H](CO)[C@@H](O)[C@H]2O)c1=N [N1-methyladenosine]
[1]; [4]
  G-CSF Protein Expression: 182 pg/mL
[1]; PBMC Donor 2
  G-CSF Protein Expression: 177 pg/mL
[1]; PBMC Donor 3
  G-CSF Protein Expression: 191 pg/mL

## CNc1ncnc2c1ncn2[C@@H]1O[C@H](CO)[C@@H](O)[C@H]1O [N6-methyladenosine]
[1]; [4]
  G-CSF Protein Expression: 100 pg/mL
[1]; PBMC Donor 2
  G-CSF Protein Expression: 168 pg/mL
[1]; PBMC Donor 3
  G-CSF Protein Expression: 200 pg/mL

## O=c1cc[nH]c(=O)[nH]1 [Uracil]
[3]; 4 h, 2.1 nM
  percent of viable cells: 93.15%
[3]; 4 h, 21 nM
  percent of viable cells: 92.90%
[3]; 4 h, 210 nM
  percent of viable cells: 91.05%
[3]; 4 h, 2.1 uM
  percent of viable cells: 90.90%
[3]; 4 h, 21 uM
  percent of viable cells: 91.95%
[3]; 4 h, 210 uM
  percent of viable cells: 89.60%
[3]; 4 h, 2.1 mM
  percent of viable cells: 90.97%
[3]; 24 h, 2.1 nM
  percent of viable cells: 87.63%
[3]; 24 h, 21 nM
  percent of viable cells: 87.23%
[3]; 24 h, 210 nM
  percent of viable cells: 86.52%
[3]; 24 h, 2.1 uM
  percent of viable cells: 86.75%
[3]; 24 h, 21 uM
  percent of viable cells: 85.89%
[3]; 24 h, 210 uM
  percent of viable cells: 86.48%
[3]; 24 h, 2.1 mM
  percent of viable cells: 87.68%
[3]; 48 h, 2.1 nM
  percent of viable cells: 91.28%
[3]; 48 h, 21 nM
  percent of viable cells: 88.89%
[3]; 48 h, 210 nM
  percent of viable cells: 88.33%
[3]; 48 h, 2.1 uM
  percent of viable cells: 89.44%
[3]; 48 h, 21 uM
  percent of viable cells: 89.11%
[3]; 48 h, 210 uM
  percent of viable cells: 88.98%
[3]; 48 h, 2.1 mM
  percent of viable cells: 94.39%
[3]; 72 h, 2.1 nM
  percent of viable cells: 95.51%
[3]; 72 h, 21 nM
  percent of viable cells: 94.53%
[3]; 72 h, 210 nM
  percent of viable cells: 94.50%
[3]; 72 h, 2.1 uM
  percent of viable cells: 94.60%
[3]; 72 h, 21 uM
  percent of viable cells: 93.63%
[3]; 72 h, 210 uM
  percent of viable cells: 93.45%
[3]; 72 h, 2.1 mM
  percent of viable cells: 96.82%

## Luciferase control
Rabbit reticulysates
  G-CSF protein (pg/ml) Rabbit reticulysates cells: 0 pg/mL

## N-1-methyladenosine [Compound N-1-methyladenosine]
wild-type T7 polymerase; G-CSF mRNA
  In vitro transcription Yield: 0.63 mg
